# Measured values from the supplement of paper PMC11451515.
# System: NOMO1
# Test: cell viability relative to DMSO control; higher = less cytotoxic
# Details: 48 h
# Outline: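 Viability is a per-plate percentage relative to DMSO wells, with cell-free wells as background. CellTiter-Glo One luminescence was read after 48 h at 37°C on 1536-well plates (5 μl) of NOMO1 or SEM (500 cells/well) or P12-Ichikawa (1000 cells/well) leukemia cells. The cells had been adapted for at least four passages in each medium and pin-dosed with library compounds in DMSO from 47 μM to 0.79 nM in 11 threefold steps.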
# [1] = HPLM + 10% dialyzed FBS, 0.000781 µM
# [2] = HPLM + 10% dialyzed FBS, 0.00234 µM
# [3] = HPLM + 10% dialyzed FBS, 0.00702 µM
# [4] = HPLM + 10% dialyzed FBS, 0.0211 µM
# [5] = HPLM + 10% dialyzed FBS, 0.0632 µM
# [6] = HPLM + 10% dialyzed FBS, 0.19 µM
# [7] = HPLM + 10% dialyzed FBS, 0.569 µM
# [8] = HPLM + 10% dialyzed FBS, 1.71 µM
# [9] = HPLM + 10% dialyzed FBS, 5.12 µM
# [10] = HPLM + 10% dialyzed FBS, 15.4 µM
# [11] = HPLM + 10% dialyzed FBS, 46.1 µM
# [12] = RPMI 5 mM glucose + 10% FBS, 0.000781 µM
# [13] = RPMI 5 mM glucose + 10% FBS, 0.00234 µM
# [14] = RPMI 5 mM glucose + 10% FBS, 0.00702 µM
# [15] = RPMI 5 mM glucose + 10% FBS, 0.0211 µM
# [16] = RPMI 5 mM glucose + 10% FBS, 0.0632 µM
# [17] = RPMI 5 mM glucose + 10% FBS, 0.19 µM
# [18] = RPMI 5 mM glucose + 10% FBS, 0.569 µM
# [19] = RPMI 5 mM glucose + 10% FBS, 1.71 µM
# [20] = RPMI 5 mM glucose + 10% FBS, 5.12 µM
# [21] = RPMI 5 mM glucose + 10% FBS, 15.4 µM
# [22] = RPMI 5 mM glucose + 10% FBS, 46.1 µM
# [23] = RPMI 5 mM glucose + 10% dialyzed FBS, 0.000781 µM
# [24] = RPMI 5 mM glucose + 10% dialyzed FBS, 0.00234 µM
# [25] = RPMI 5 mM glucose + 10% dialyzed FBS, 0.00702 µM
# [26] = RPMI 5 mM glucose + 10% dialyzed FBS, 0.0211 µM
# [27] = RPMI 5 mM glucose + 10% dialyzed FBS, 0.0632 µM
# [28] = RPMI 5 mM glucose + 10% dialyzed FBS, 0.19 µM
# [29] = RPMI 5 mM glucose + 10% dialyzed FBS, 0.569 µM
# [30] = RPMI 5 mM glucose + 10% dialyzed FBS, 1.71 µM
# [31] = RPMI 5 mM glucose + 10% dialyzed FBS, 5.12 µM
# [32] = RPMI 5 mM glucose + 10% dialyzed FBS, 15.4 µM
# [33] = RPMI 5 mM glucose + 10% dialyzed FBS, 46.1 µM
SMILES,cell viability [1] [%],cell viability [2] [%],cell viability [3] [%],cell viability [4] [%],cell viability [5] [%],cell viability [6] [%],cell viability [7] [%],cell viability [8] [%],cell viability [9] [%],cell viability [10] [%],cell viability [11] [%],cell viability [12] [%],cell viability [13] [%],cell viability [14] [%],cell viability [15] [%],cell viability [16] [%],cell viability [17] [%],cell viability [18] [%],cell viability [19] [%],cell viability [20] [%],cell viability [21] [%],cell viability [22] [%],cell viability [23] [%],cell viability [24] [%],cell viability [25] [%],cell viability [26] [%],cell viability [27] [%],cell viability [28] [%],cell viability [29] [%],cell viability [30] [%],cell viability [31] [%],cell viability [32] [%],cell viability [33] [%]
CC\1=C(C(=O)N(\C=C1)C2=CC=C(C=C2)C3=NC=CO3)/C4=CC5=CN=C(N)N=C5C=C4,98.8,107,126,112,108,117,122,122,123,108,94.9,97,103,96.1,104,112,116,114,107,124,113,100,99.1,89.6,103,119,123,107,108,101,107,117,90
CNC1[C@@H](O)C(O[C@@H]2C(O)C(O[C@H]3O[C@H]([C@@H](C)NC)CC[C@H]3N)[C@@H](N)C[C@H]2N)OC[C@]1(C)O (stereo partly specified),98.9,102,104,106,108,98.1,106,87.4,85.3,91.4,63.7,93.4,99.6,93.2,97.3,91.3,91.2,91.2,98.9,87.7,92.8,96.7,92.4,84.5,87.1,81.2,88.5,87.7,92.1,90,83.1,89.8,76.5
C[C@@H]1COCCN1C\2=C\C(=O)N\3CC[C@H](N(CC4=CN=CC(=C4)Cl)C3=N2)C(F)(F)F,90.9,95.9,102,105,124,130,112,100,103,45.4,29.4,98,87.7,95.1,93.8,95.4,98.5,92.7,94.2,96.9,57.4,26,87.7,89.9,91.1,98.4,108,113,95.1,89.5,67.7,37,22
Cc1cccc(-c2nn(C(=S)Nc3ccccc3)cc2-c2ccnc3ccccc23)n1,–,–,–,–,–,–,–,–,–,–,–,108,118,109,122,111,113,119,108,115,81.6,94.9,115,122,112,119,115,103,111,104,117,112,102
c1cc(CN2CCCNCCNCCCNCC2)ccc1CN1CCCNCCNCCCNCC1,79.6,109,100,30.5,117,108,102,109,109,106,104,88.4,85.8,97.8,18.6,89.2,105,86.7,88.4,85.4,101,92.5,89.2,78.2,83.5,33,98.3,93.9,102,92.7,91.3,91.4,93.4
N=C(N)NC(=O)c1nc(Cl)c(N)nc1N,110,114,132,133,134,130,133,54.1,35.8,35,36.9,–,–,–,–,–,–,–,–,–,–,–,112,134,123,134,133,129,136,72.5,33.3,29.2,29.1
CN(C)CCc1c[nH]c2ccc(C[C@H]3COC(=O)N3)cc12,104,119,106,113,106,121,127,111,104,48.1,9.77,104,98.6,106,101,112,97.3,110,106,99.9,59.2,12.9,96.4,108,106,111,116,114,108,102,109,87.8,20.1
C[C@@]12O[C@@H](C[C@]1(O)CO)n1c3ccccc3c3c4c(c5c6ccccc6n2c5c31)CNC4=O,–,–,–,–,–,–,–,–,–,–,–,106,128,102,121,119,96.3,77.3,42.3,39.9,24.3,5.7,103,118,122,138,110,99.6,76.4,50,31.8,27.4,4.47
